Holding throughout (experiment): NCI-60 cell line screen, 48 h
Assay [1] deals with MCF7 breast.
Assay [2] has as its system OVCAR-4 ovarian.
The subject of assay [3] is MALME-3M melanoma.
The test system of assay [4] is K-562 leukemia.
Assay [5] relates to EKVX NSCLC.
Assay [6] relates to RPMI-8226 leukemia.
In assay [7] the test system is MDA-MB-231 breast.
The subject of assay [8] is MOLT-4 leukemia.
For assay [9], the system named is RXF 393 renal.
The subject of assay [10] is IGROV1 ovarian.
Assay [11] has as its system COLO 205 colon.
In assay [12] the test system is HL-60(TB) leukemia.
Assay [13] relates to HS 578T breast.
The subject of assay [14] is HCC-2998 colon.
The subject of assay [15] is NCI/ADR-RES ovarian.
The subject of assay [16] is SNB-75 CNS.
Assay [17] relates to UACC-257 melanoma.
For assay [18], the system named is NCI-H460 lung.
Assay [19] relates to SK-MEL-2 melanoma.

Drawing on PubChem BioAssay (NCI), this text covers TGI for eight molecules.

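Five concentrations, 48 hours, 96-well plates. TGI denotes the concentration required for complete inhibition of growth.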

Consider `NC(=O)ON=C1CCN(Cc2ccccc2)CC1`, for which the TGI in assay [1], in [2], in assay [3], in [4], in [5] and in assay [6] was > 100 µM in each case. Also, the TGI in assay [7], in [8], in assay [9], in assay [10], in [11] and in [12] was > 100 µM each time. For the same molecule, the TGI in assay [13], in [14], in assay [15], in [16], in assay [17] and in assay [18] was > 100 µM each time. In assay [19], the TGI was > 100 µM.

In the case of `CN(C)C(=O)c1nnsc1NN=O`, the TGI in assay [1], in [2], in assay [3], in [4], in assay [5] and in assay [6] was > 100 µM in each case. For the same molecule, the TGI in assay [7], in [8], in assay [9], in assay [10], in assay [11] and in [12] was > 100 µM each time. Further, the TGI in assay [13], in assay [14], in [15], in assay [16], in [17] and in assay [18] was > 100 µM in each case. Besides, the TGI in [19] was > 100 µM.

`COC1=C(C)C(=O)C2C(C1=O)C(c1ccc(OC)c(OC)c1)[C@H]2C` (some centres undefined): the TGI in [2], in assay [3], in assay [4], in assay [5], in assay [6] and in [8] was > 100 µM each time. For the same molecule, the TGI in assay [9], in assay [10], in assay [11], in assay [12], in assay [14] and in assay [16] was > 100 µM each time. For the same molecule, the TGI in assay [18] and in assay [19] was > 100 µM in each case.

In the case of `C=CC1(c2ccc(Cl)c(Cl)c2)OCCO1`, the TGI in assay [1], in [2], in [3], in assay [4], in [5] and in assay [6] was > 100 µM throughout. Also, the TGI in assay [7] was 3.48 µM; in [8], > 100 µM; in [9] it was > 100 µM; in [10], > 100 µM; in [11] it was > 100 µM; in assay [12], 67.5 µM. Besides, the TGI in [13] was > 100 µM; in assay [14] it was > 100 µM; in assay [15], > 100 µM; in assay [16], 55.2 µM; in assay [17] it was > 100 µM; in assay [18], > 100 µM. In addition, in [19], the TGI was > 100 µM.

For the molecule `CSc1sc(C)cc1-c1nsc(=O)o1`, the TGI in assay [1], in assay [2], in [3], in assay [4], in [5] and in assay [6] was > 100 µM in each case. The TGI in assay [8], in [9], in assay [10], in [11], in assay [12] and in assay [13] was > 100 µM throughout. In addition, the TGI in assay [14], in assay [15], in assay [17] and in assay [18] was > 100 µM each time.

`CC(=O)Oc1ccn2nc(C)c(Cc3c(C)nn4ccc(OC(C)=O)cc34)c2c1`: the TGI in assay [1] is > 10 µM; in assay [2], > 100 µM; in [3], > 100 µM; in [4], > 100 µM; in [5], > 100 µM; in assay [7], > 100 µM. Moreover, the TGI in assay [8], in [10], in [12], in [13], in assay [15] and in assay [16] was > 100 µM in each case. Moreover, the TGI in assay [17], in [18] and in assay [19] was > 100 µM in each case.

On to `CC1=NN(c2cccc(Cl)c2)C(=N/c2nc3ccccc3s2)/C1=C\C=C\c1ccccc1`, for which the TGI is > 100 µM in assay [1]; > 100 µM in [2]; > 100 µM in assay [4]; > 100 µM in assay [5]; 81.2 µM in [6]; 3.48 µM in [8]. For the same molecule, the TGI in assay [9] was > 100 µM; in assay [10], 82.8 µM; in assay [12] it was 92.8 µM; in assay [13], 87.6 µM; in [15] it was > 100 µM; in assay [17], > 100 µM. Further, in [18], the TGI was > 100 µM.

As to `CSc1nc(C)cc(N(C)c2ccccc2)n1`, the TGI is 75.4 µM in assay [1]; > 100 µM in assay [2]; > 100 µM in [3]; > 100 µM in assay [4]; > 100 µM in assay [5]; > 100 µM in [6]. Besides, the TGI is 87.3 µM in assay [7]; > 100 µM in assay [8]; > 100 µM in assay [9]; > 100 µM in assay [10]; > 100 µM in [11]; 61.9 µM in assay [12]. The TGI in assay [13] was 86.6 µM; in assay [14], > 100 µM; in [15] it was 63.6 µM; in assay [16], 94.3 µM; in assay [17] it was 84 µM; in [18], > 100 µM. In addition, the TGI in [19] is > 100 µM.
